Test results as given in US20240010992A1, “COMPOSITIONS AND METHODS TO IMPROVE IPSC-EC FUNCTION” (Northwestem University, priority 2022, published 2024).
Entries after “also recorded” stand apart in the source; their conditions may differ. Where two headings read alike, the source gives them in different places.

Columns and labels:
ACS1028-ECs [1] = experiment: Cell survival of purified iPSC-ECs by light microscopy cell counting / Trypan blue; type: cell-based; settings: for cell survival: serial passaging
Procedure: There were three biological replicates for each group in each experiment, unless otherwise specified. For MitoTracker quantification, total fluorescence signal for the area was measured in Fiji and divided by the number of nuclei present. This was done for 5 fields of view (technical replicates) and averaged to generate a data point for a given biological replicate. For the DAF-FM reduction measurements for NO production, a given experimental condition was plated into 3 wells of a 96 well plate. For TEM analysis, each biological sample was imaged in a minimum of 5 locations. Three representative images from each condition were utilized for quantifying autolysosomes per high power field (HPF) in each of two separate experiments. For light microscopy images, cells were manually counted from three distinct areas of a given experimental condition on two separate occasions. All data wereanalyzed with one-way ANOVA with a post-hoc Tukey test in IBM SPSS Statistics for Macintosh, version 27 (IBM Corp., Armonk, N.Y., USA). A p value of <0.05 was considered significant, where * represent comparisons between the specified groups.
(§1) Experiments were conducted to determine whether inducing autophagy in iPSC-ECs overcomes the premature senescence phenomenon. […] Due to the loss of proliferating cells in the control culture, the experiment was terminated at passage 3.
(§2) To assess whether the effect of Rg2 on proliferation is mediated through autophagy, ACS1028-ECs was administered with 200 μM Rg2 and SBI-0206965 to block ULK1 kinase at varying concentrations. Cell survival was assessed by counting the number of cells per high power field by light microscopy, which diminished over serial passages in the DMSO-treated vehicle-control condition.

SIRT1 = experiment: Western blotting, SIRT1 expression in iPSC-ECs; type: cell-based; settings: human iPSC-derived endothelial cells
Description: (§3) Milk solution was removed, and membranes rinsed in TBST. […] ECL was applied for chemiluminescence. Imaging was done using Bio-Rad imager.

Drp1 = experiment: Western blotting, phosphorylation of Drp1 in iPSC-ECs; type: cell-based; settings: human iPSC-derived endothelial cells
Description: as §3

[2] = test system: endothelial nitric oxide synthase; experiment: Western blotting, phosphorylation of endothelial nitric oxide synthase in iPSC-ECs; type: cell-based; settings: human iPSC-derived endothelial cells
Description: as §3

Parkin = experiment: Western blotting, Parkin expression in iPSC-ECs; type: cell-based, human; settings: particularly under bafilomycin treated conditions
Description: as §3

ACS1028-ECs [3] = experiment: Cell proliferation assay (EdU labeling) of iPSC-ECs over serial passages; type: cell-based, human
Procedure: Proliferating cells were labeled with EdU using the Invitrogen Click-iT microplate assay kit (Invitrogen C10214), without the use of the Amplex Ultra red step. Cells were labeled for 24 hours with 10 μM EdU or DMSO as a vehicle control. Cells were fixed and prepared according to the manufacturer's instructions, minus the Amplex Ultra red labeling. Hoechst 33342 was added at 5 μg/mL (Invitrogen H1399), and labeled cells were imaged on a Zeiss inverted fluorescence microscope. Four tiled images at 10× magnification were collected per each well of 3 biological replicates per condition and stitched together as a single image per well for analysis. EdU-labeled and total nuclei were counted in Fiji.
as §1

LC3-II = experiment: Western blotting of LC3-II (normalized to GAPDH) in ACS1028-EC lysate; type: cell-based, human; settings: ACS1028-ECs
Procedure: Western blotting was performed using a modified Novus Biological protocol (NB100-2220) with 10%, 12%, 14% or 4-20% gradient SDS-PAGE gels. Cells were collected and lysed with RIPA buffer plus PMSF protease inhibitor. Cell lysate was centrifuged at high speed for 10 minutes at 4° C., and the supernatant was transferred to a fresh tube. The total protein content was quantified with a Bradford assay, and a total of 20 ug of protein was mixed with Laemmli buffer (4% SDS, 5% 2-mercaptoethanol (BME), 20% glycerol, 0.004% bromophenol blue, 0.125 M Tris HCl, pH 6.8) and denatured for 10 minutes at 95° C. This was followed by wet transfer to PVDF immobilon membrane (Millipore IPFL00010) and blocked with Odyssey TBS blocking buffer (LiCor 927-50000). […] Bands were quantified and normalized by a ratio of LC3-II:GAPDH, rather than LC3-II:LC3-I as LC3-II is more sensitive in blotting and accurate observed alone.
as §2

Opal = experiment: Western blotting, Opal expression in iPSC-ECs; type: cell-based; settings: human iPSC-derived endothelial cells
Description: as §3

PKM2 = experiment: Western blotting, phosphorylation of PKM2 in iPSC-ECs; type: cell-based, human; settings: particularly under bafilomycin treated conditions
Description: as §3

PDH = experiment: Western blotting, PDH expression in iPSC-ECs; type: cell-based, human; settings: particularly under bafilomycin treated conditions
Description: as §3

ACS1028-derived ECs = experiment: Mitophagy inducing drug experiment, cell number by total Hoechst signal; settings: all concentrations, by passage 1
Procedure: (§4) The effect of increasing mitophagy in iPSC-ECs was evaluated.

CD144 and CD31 = experiment: Immunostaining for CD144 and CD31 and morphology of iPSC-ECs; type: cell-based, human; settings: ACS1028 and Y6 iPSC-ECs
Procedure: Immunostaining was performed by fixing cells in 4% paraformaldehyde for 15 minutes at room temperature and then washing with PBS. Cells were then permeabilized with 70% ice cold ethanol on ice and blocked with 0.5% BSA in PBS for 15 minutes at room temperature. Cells were then incubated overnight at 4° C. with the primary antibody in antibody dilution buffer (0.05% BSA in PBS) at the following concentrations: Nanog (Life Technologies PA1-097, 1:100), SSEA4 (Life Technologies 414000, 1:400), Sox2 (Life Technologies PA1-16968, 1:100), VE-cadherin/CD144 (Sigma V1514, 1:200), PECAM1/CD31 (Abcam ab187377, 1:100). The isotype control antibodies used in this study were mouse IgG1 (Abcam ab172730) and rabbit serum. Cells were washed with PBS and incubated with conjugated secondary antibodies at room temperature in the dark (Life Technologies, 1:300).

Y6-derived ECs = experiment: Mitophagy inducing drug experiment, cell number by total Hoechst signal; settings: all concentrations, by passage 1
Procedure: as §4

Procedure for cleaved caspase 3: Utilizing 8%, 10%, and 14% polyacrylamide gels, samples were run at 150V for 1 to 2 hours in SDS-Tris-Glycine buffer. Gels were then transferred to nitrocellulose membrane for two and half hours at 0.35 Amps in Tris-Glycine transfer buffer. After transfer nitrocellulose membranes were blocked in 10% milk/TBST solution for 1 hr. Milk solution was removed, and membranes rinsed in TBST. Blocked membranes were cut and placed in primary antibody solution (5% BSA/TBST) overnight. After incubation with primary antibody incubation membranes were washed with TBST for 5 mins 3X. Secondary antibody incubation (Rabbit 1:1000) in 5% BSA solution was applied for 2 hrs. After secondary antibody incubation membranes were washed with TBST for 15 mins 3X. ECL was applied for chemiluminescence. Imaging was done using Bio-Rad imager.

CC(C)=CCC[C@](C)(O)[C@H]1CC[C@]2(C)[C@@H]1[C@H](O)C[C@@H]1[C@@]3(C)CC[C@H](O)C(C)(C)[C@@H]3[C@@H](O[C@@H]3O[C@H](CO)[C@@H](O)[C@H](O)[C@H]3O[C@@H]3O[C@@H](C)[C@H](O)[C@@H](O)[C@H]3O)C[C@]12C [Rg2]
cell survival (ACS1028-ECs [1]; purified ACS1028-ECs): improved cell survival | SIRT1 expression (SIRT1): increased expression of longevity protein SIRT1 in a dose-dependent manner | apoptosis (cleaved caspase 3) (cleaved caspase 3): no increase in cleaved caspase 3 | phosphorylation of Drp1 (mitochondrial fission) (Drp1): increased phosphorylation of Drp1 | phosphorylation (activity) of endothelial nitric oxide synthase [2]: increased phosphorylation | Parkin (mitophagy marker) expression (Parkin): increased Parkin expression; also recorded: slightly increases | persistence of the proliferation benefit over serial passages (ACS1028-ECs [3]; serial passages, experiment terminated at passage 3): persisted through passage 3; also recorded: sustained through passage 3 | proliferation (EdU labeled cells) (ACS1028-ECs [3]; versus DMSO vehicle control and rapamycin, ML246, Antimycin A or oligomycin): increased rate of proliferation; also recorded: statistically significant improvement in proliferation | LC3-II level by Western blotting (LC3-II; passage 3, Rg2 treated vs DMSO): increase in LC3-II level | expression of Opal (mitochondrial fusion) (Opal): increased | phosphorylation of PKM2 (PKM2): increased phosphorylation of PKM2 | expression of PDH (PDH): increased

NCCCCNCCCN [spermidine]
residual cells, Trypan blue (ACS1028-ECs [1]; purified ACS1028-ECs incubated overnight with Trypan blue): no residual cells | presence of cells by light microscopy (ACS1028-ECs [1]; purified ACS1028-ECs, versus control and DMSO-vehicle control): no cells visible

Antimycin A
cell loss / cell survival (total Hoechst signal) (ACS1028-derived ECs): high levels of cell loss; also recorded: decreased cell survival | CD144 and CD31 expression and typical morphology (mature endothelial cell phenotype) (CD144 and CD31): accelerated the loss of CD144 and CD31 as well as typical morphology | cell survival (total Hoechst signal) (Y6-derived ECs): decreased cell survival

N=c1c2c(-c3ccccc3)c(-c3ccccc3)n(Cc3ccccc3)c2ncn1[C@H]1CC[C@H](O)CC1 [ML246]
presence of cells by light microscopy (ACS1028-ECs [1]): no cells visible | residual cells, Trypan blue (ACS1028-ECs [1]): no residual cells

CNC(=O)c1ccccc1Oc1nc(Nc2cc(OC)c(OC)c(OC)c2)ncc1Br [SBI-0206965]
presence of cells by light microscopy (ACS1028-ECs [1]): no cells visible | residual cells, Trypan blue (ACS1028-ECs [1]): no residual cells | cell survival (cells per high power field), co-treatment with Rg2 (ACS1028-ECs [1]; 10 μM (highest concentration) in the presence of 200 μM Rg2, passages 2 and 3): almost no surviving cells | cell survival (ACS1028-ECs [1]; purified ACS1028-ECs): no cells surviving to passage 1 | cell survival (cells per high power field), co-treatment with Rg2 (ACS1028-ECs [1]; varying concentrations of SBI-0206965 in the presence of 200 μM Rg2, survival to passage 3): fewer cells surviving when treated with higher concentrations; also recorded: statistically significant reduction in cell survival in a dose-dependent manner | LC3-II level by Western blotting, co-treatment with Rg2 (LC3-II; passage 3, SBI-0206965 at any concentration added to Rg2): reduced

CC[C@H]1/C=C/C=C/C[C@@H](C)[C@H](O)[C@@](C)(O)C(=O)[C@@H](C)[C@H](O)[C@@H](C)C(=O)[C@@H](C)[C@H](O)[C@@H](C)/C=C/C(=O)O[C@@H]2[C@H](C)[C@H](CC1)O[C@]1(CC[C@H](C)[C@H](C[C@@H](C)O)O1)[C@H]2C [oligomycin]
cell loss / cell survival (total Hoechst signal) (ACS1028-derived ECs): high levels of cell loss; also recorded: decreased cell survival | CD144 and CD31 expression and typical morphology (mature endothelial cell phenotype) (CD144 and CD31): accelerated the loss of CD144 and CD31 as well as typical morphology | cell survival (total Hoechst signal) (Y6-derived ECs): decreased cell survival

N#CC(C#N)=NNc1ccc(OC(F)(F)F)cc1 [FCCP]
cell loss / cell survival (total Hoechst signal) (ACS1028-derived ECs): high levels of cell loss | CD144 and CD31 expression and typical morphology (mature endothelial cell phenotype) (CD144 and CD31): accelerated loss of mature endothelial cell phenotype

Oc1ccc(C=Cc2cc(O)cc(O)c2)cc1 [resveratrol]
presence of cells by light microscopy (ACS1028-ECs [1]): no cells visible | residual cells, Trypan blue (ACS1028-ECs [1]): no residual cells | cell survival (ACS1028-ECs [1]; purified ACS1028-ECs): no cells surviving to passage 1
